Source: patent US10071975B2, “Macrocyclic amidinourea derivatives, methods of preparation and uses thereof as chitinase inhibitors” (CYGNET BIOSCIENCES B.V., priority 2013, dated 2018)
pIC50, pKi: −log10 of the molar value. Values after ≈ are worked out from the molar mass of the structure shown. Where two headings read alike, the source gives them in different places.

Tests used:
[1] = tested on: C. albicans fluconazole resistant strains; assay: microbe, parasite or virus in culture; format: cell-based; details: Candida albicans, 24 h
C. krusei = assay: Antimicrobial susceptibility testing (microdilution MIC90), C. krusei strains; format: cell-based, Candida krusei; details: Pichia kudriavzevii, 24 h
Protocol: (§1) Sterile plastic microtitration plates containing flat-bottomed wells were used. The plates contained serial dilution of the antifungal agents with a volume of assay medium of 100 μL/well. Two drug-free medium wells were used as sterility and growth controls. The trays were inoculated with 100 μL/well of the final inoculum, with the exception of sterility control wells. […] The microtitration plates were incubated at 37° C. for 24 h. The minimal inhibitory concentrations (MICs) were determined at 24 h both visually and spectrophotometrically measuring the turbidity at 595 nm with a Varian model 1475 spectrophotometer. Results of biological tests are shown in Table 2, biological data are reported as MIC90 that is the minimum concentration required to inhibit the growth of at least the 90% of the strains tested for each species.

C. guilliermondii = assay: Antimicrobial susceptibility testing (microdilution MIC90), C. guilliermondii strains; format: cell-based, Candida guilliermondii; details: Meyerozyma guilliermondii; C. guilliermondii (10 strains tested); 24 h
Protocol: as §1

C. glabrata = assay: Antimicrobial susceptibility testing (microdilution MIC90), C. glabrata strains; format: cell-based, Candida glabrata; details: Nakaseomyces glabratus; C. glabrata (26 strains tested); 24 h
Protocol: as §1

C. kefyr = assay: Antimicrobial susceptibility testing (microdilution MIC90), C. kefyr strains; format: cell-based, Candida kefyr; details: Kluyveromyces marxianus; C. kefyr (10 strains tested); 24 h
Protocol: as §1

[2] = tested on: chitinase enzyme extracted from Trichoderma viride; assay: Chitinase inhibition assay (NP-GlcNAc substrate); format: biochemical
Protocol: Chitinase inhibition assays were conducted against an example of the GH18 family of chitinases, i.e the chitinase enzyme extracted from Trichoderma viride. This enzyme has an high degree of identity compared to chitinase 4 of Candida albicans, and is commercially available from Sigma-Aldrich (catalogue ID: C8241).
The substrate used was the NP-GlcNAc (Sigma-Aldrich, catalogue ID: N9376) dissolved in MES 50 mM at pH6.0; the final concentration was 250 μM. The enzyme was resuspended at 0.11 mg/ml in MES 50 mM at pH 6.0, with a final concentration for the assay of 73 nM diluting with MES 50 mM and BSA 20 μg/ml at pH 6.0. A stock solution of the inhibitors was prepared at 50 mM in DMSO 100%.
The mixture with the inhibitor at various concentrations and the enzyme was prepared directly into the reading plate and left to incubate at room temperature for 20 minutes or three hours. At the end of the incubation times, the substrate was added and the reading was conducted by recording the values up to a maximum time of 10 minutes. The substrate concentration was measured by reading UV absorption at 300 nm (εM^300: 11100), while, the product of hydrolysis were measured at 400 nm (ΔεM^400: 2120). Both IC50 and Ki can be calculated.

C. albicans = assay: Antimicrobial susceptibility testing (microdilution MIC90), C. albicans strains; format: cell-based; details: Candida albicans; C. albicans (22 strains tested); 24 h, visually and spectrophotometrically
Protocol: as §1

C. parapsilosis = assay: Antimicrobial susceptibility testing (microdilution MIC90), C. parapsilosis strains; format: cell-based, Candida parapsilosis; details: Lodderomyces parapsilosis; C. parapsilosis (24 strains tested); 24 h
Protocol: as §1

C. tropicalis = assay: Antimicrobial susceptibility testing (microdilution MIC90), C. tropicalis strains; format: cell-based; details: Candida tropicalis; C. tropicalis (11 strains tested); 24 h
Protocol: as §1

[3] = tested on: C. glabrata fluconazole resistant strains; assay: microbe, parasite or virus in culture; format: cell-based, Candida glabrata; details: Nakaseomyces glabratus, 24 h
[4] = strain DSY284, ERG11 Mutation, mean of three measurements
[5] = strain DSY289, ERG11 Mutation (2)
[6] = strain DSY291, ERG11 Mutation (2)
[7] = strain DSY292, ERG11 Mutation (3)
[8] = strain DSY751, ↑MDR1, ERG11 Mutation
[9] = Enz.-inhib. incubation time 20 min
[10] = Enz.-inhib. incubation time 3 h

Row | Structure (SMILES) | MIC [1, 4] [µg/mL] | MIC [1, 5] [µg/mL] | MIC [1, 6] [µg/mL] | MIC [1, 7] [µg/mL] | MIC ([1]; strain DSY296, ERG11 Mutation) [µg/mL] | MIC ([1]; strain DSY348, ERG11 Mutation) [µg/mL] | MIC ([1]; strain DSY732, ↑CDR1-CDR2) [µg/mL] | MIC ([1]; strain DSY735, ↑CDR1-CDR2) [µg/mL] | MIC ([1]; strain DSY750, ↑MDR1) [µg/mL] | MIC [1, 8] [µg/mL] | MIC ([1]; strain DSY775, ERG11 Mutation) [µg/mL] | MIC ([1]; strain DSY2323, ↑CDR2-MDR1) [µg/mL] | MIC90 (C. guilliermondii) [µg/mL] | MIC90 (C. glabrata) [µg/mL] | MIC90 (C. kefyr) [µg/mL] | MIC90 (C. albicans) [µg/mL] | MIC90 (C. parapsilosis) [µg/mL] | MIC90 (C. tropicalis) [µg/mL] | MIC ([3]; strain DSY530, ↑CDR1) [µg/mL] | MIC ([3]; strain DSY754, ↑CDR1) [µg/mL] | further results
1 | C/C=C/CNC(=N)NCCCCCCCCN1CCCCCOc2ccccc2CNC(=N)NC1=O [Example 17, 1-[(E)-but-2-enyl]-3-[8-(4-imino-6-oxo-13-oxa-3,5,7-triazabicyclo[12.4.0]octadeca-1(14),15,17-trien-7-yl)octyl]guanidine] | 2 (≈ 4 µM) | 2 (≈ 4 µM) | 4 (≈ 8 µM) | 4 (≈ 8 µM) | 4 (≈ 8 µM) | 2 (≈ 4 µM) | 2 (≈ 4 µM) | 2 (≈ 4 µM) | 4 (≈ 8 µM) | 4 (≈ 8 µM) | 4 (≈ 8 µM) | 4 (≈ 8 µM) | 2 (≈ 4 µM) | 8 (≈ 16 µM) | 4 (≈ 8 µM) | 4 (≈ 8 µM) | 2 (≈ 4 µM) | 2 (≈ 4 µM) | 8 (≈ 16 µM) | 16 (≈ 32 µM) | MIC90 (C. krusei; C. krusei (13 strains tested), read-out: MIC90): 8 µg/mL (≈ 16 µM); inhibition of the chitinase enzyme [2]: active inhibitor; pIC50 [2, 9]: 3.82; pKi [2, 9]: 4.31; pIC50 [2, 10]: 4.26; pKi [2, 10]: 4.75; MIC ([3]; strain DSY756, ↑CDR1-CDR2-SNQ2): 8 µg/mL (≈ 16 µM); MIC ([3]; strain DSY2254, ↑CDR1-CDR2): 16 µg/mL (≈ 32 µM); MIC ([3]; strain DSY2271, ↑CDR2): 8 µg/mL (≈ 16 µM)
2 | OC(Cn1cncn1)(Cn1cncn1)c1ccc(F)cc1F [F, Fluconazole, reference compound] | 256 (≈ 836 µM) | 256 (≈ 836 µM) | 2 (≈ 6.53 µM) | 64 (≈ 209 µM) | 128 (≈ 418 µM) | 32 (≈ 104 µM) | 16 (≈ 52.2 µM) | 64 (≈ 209 µM) | 2 (≈ 6.53 µM) | 256 (≈ 836 µM) | 128 (≈ 418 µM) | 32 (≈ 104 µM) | 4 (≈ 13.1 µM) | 16 (≈ 52.2 µM) | 1 (≈ 3.27 µM) | 2 (≈ 6.53 µM) | 0.5 (≈ 1.63 µM) | 2 (≈ 6.53 µM) | 64 (≈ 209 µM) | 64 (≈ 209 µM) | MIC90 (C. krusei): 256 µg/mL (≈ 836 µM); MIC ([3]; strain DSY756, ↑CDR1-CDR2-SNQ2): 128 µg/mL (≈ 418 µM); MIC ([3]; strain DSY2254, ↑CDR1-CDR2): 128 µg/mL (≈ 418 µM); MIC ([3]; strain DSY2271, ↑CDR2): 64 µg/mL (≈ 209 µM)
